Experimental data: patent publication US4130709A, “Pleuromutilin glycoside derivatives” (Eli Lilly and Company, priority 1977, dated 1978)
Converted amounts (≈) assume the structure as drawn. Where two headings read alike, the source gives them in different places.

Tests used:
[1] = system: swine dysentery; details: cited from earlier work
[2] = system: Staphylococcus aureus (H-Heatley) NRRL B-314; assay: in vitro turbidometric assay (Autoturb Microbiological Assay System) against Staphylococcus aureus; type: cell-based; details: nutrient broth pH 7, approximately 4 hours at 37° C., A-40104 factor A as standard
Outline: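 S. aureus H-Heatley NRRL B-314 grown in nutrient broth (pH 7), about 4 h at 37° C, with turbidity read on the Autoturb system. Compounds were dissolved in water and diluted to roughly 2.5–5.0 mcg activity/ml. Activity units were set against an A-40104 factor A standard curve (1.25–6.25 mcg/ml).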

[3] = system: Staphylococcus aureus 3055; assay: in vivo antimicrobial activity, experimental infection in mice, Staphylococcus aureus 3055; details: two doses, read-out: ED50 × 2
Experimental: (§1) Typical compounds of the present invention have shown in vivo antimicrobial activity against experimental bacterial infections. When two doses of these compounds were administered to mice in illustrative infections, the activity observed was measured as an ED50 value [effective dose in mg/kg to protect 50% of the test animals; see Warren Wick, et al., J. Bacteriol. 81, 233-235 (1961)].

[4] = system: Streptococcus pyrogenes C203; assay: in vivo antimicrobial activity, experimental infection in mice, Streptococcus pyrogenes C203; details: sc, two doses, infecting challenge 500 × LD50 (ip), read-out: ED50 × 2
Experimental: as §1

[5] = system: Streptococcus pneumoniae Park I; assay: in vivo antimicrobial activity, experimental infection in mice, Streptococcus pneumoniae Park I; details: sc, read-out: ED50 × 2
Experimental: as §1

[6] = system: Streptococcus pneumoniae B1343; assay: in vivo antimicrobial activity, experimental infection in mice, Streptococcus pneumoniae B1343; details: sc, two doses, infecting challenge 30 × LD50 (ip), read-out: ED50 × 2
Experimental: as §1

[7] = system: Streptococcus pneumoniae B1492; assay: in vivo antimicrobial activity, experimental infection in mice, Streptococcus pneumoniae B1492; details: sc, two doses, infecting challenge 340 × LD50 (ip), read-out: ED50 × 2
Experimental: as §1

[8] = system: Actinomyces israelii; assay: standard agar-dilution test, anaerobic bacteria; type: cell-based; details: 24-hour incubation
[9] = system: Clostridium perfringens; assay: microbe, parasite or virus in culture; type: cell-based; details: 24 h
[10] = system: Bacteroides thetaiotaomicron; assay: standard agar-dilution test, anaerobic bacteria; type: cell-based; details: 24-hour incubation
Experimental: (§2) Table IV summarizes the activity of typical compounds of this invention, as determined by the standard agar-dilution test.
(§3) *Endpoint read after 24-hour incubation

[11] = system: Clostridium septicum; assay: standard agar-dilution test, anaerobic bacteria; type: cell-based; details: 24-hour incubation
Experimental: as §2, §3

[12] = system: Eubacterium aerofaciens; assay: standard agar-dilution test, anaerobic bacteria; type: cell-based; details: Collinsella aerofaciens; Eubacterium aerofaciens; 24-hour incubation; read-out: MIC
[13] = system: Peptococcus asaccharolyticus; assay: standard agar-dilution test, anaerobic bacteria; type: cell-based; details: Peptoniphilus asaccharolyticus, 24-hour incubation
[14] = system: Peptococcus prevoti; assay: standard agar-dilution test, anaerobic bacteria; type: cell-based; details: Peptococcus prevoti; 24-hour incubation; read-out: MIC
[15] = system: Peptostreptococcus anaerobius; assay: standard agar-dilution test, anaerobic bacteria; type: cell-based; details: 24-hour incubation
[16] = system: Peptostreptococcus intermedius; assay: standard agar-dilution test, anaerobic bacteria; type: cell-based; details: Peptostreptococcus intermedius; 24-hour incubation; read-out: MIC
[17] = system: Bacteroides fragilis 111; assay: standard agar-dilution test, anaerobic bacteria; type: cell-based; details: Bacteroides fragilis 111; 24-hour incubation; read-out: MIC
[18] = system: Bacteroides fragilis 1877; assay: standard agar-dilution test, anaerobic bacteria; type: cell-based; details: Bacteroides fragilis 1877; 24-hour incubation; read-out: MIC
[19] = system: Bacteroides fragilis 1936B; assay: standard agar-dilution test, anaerobic bacteria; type: cell-based; details: Bacteroides fragilis 1936B; 24-hour incubation; read-out: MIC
[20] = system: Bacteroides melaninogenicus 1856/28; assay: standard agar-dilution test, anaerobic bacteria; type: cell-based; details: Prevotella intermedia; Bacteroides melaninogenicus 1856/28; 24-hour incubation; read-out: MIC
[21] = system: Bacteroides melaninogenicus 2736; assay: standard agar-dilution test, anaerobic bacteria; type: cell-based; details: Bacteroides melaninogenicus 2736; 24-hour incubation; read-out: MIC
[22] = system: Bacteroides vulgatis; assay: standard agar-dilution test, anaerobic bacteria; type: cell-based; details: Bacteroides vulgatis; 24-hour incubation; read-out: MIC
[23] = system: Bacteroides corrodens; assay: standard agar-dilution test, anaerobic bacteria; type: cell-based; details: Eikenella corrodens; Bacteroides corrodens; 24-hour incubation; read-out: MIC
[24] = system: Fusobacterium symbiosum; assay: standard agar-dilution test, anaerobic bacteria; type: cell-based; details: Fusobacterium symbiosum; 24-hour incubation; read-out: MIC
[25] = system: Fusobacterium necrophorum; assay: standard agar-dilution test, anaerobic bacteria; type: cell-based; details: 24-hour incubation, read-out: MIC
[26] = system: Mycoplasma gallisepticum; assay: in vitro broth-dilution studies, mycoplasma; type: cell-based; details: Mycoplasmoides gallisepticum
Source text: (§4) The minimal inhibitory concentrations (MIC's) of a number of typical compounds of the present invention (R^2 =H in group tested) against various mycoplasma species, as determined by in vitro broth-dilution studies, are summarized in Table V.

[27] = system: Mycoplasma hyopneumoniae; assay: in vitro broth-dilution studies, mycoplasma; type: cell-based; details: Mesomycoplasma hyopneumoniae
Source text: as §4

[28] = system: Mycoplasma hyorhinis; assay: in vitro broth-dilution studies, mycoplasma; type: cell-based
Source text: as §4

[29] = system: Mycoplasma synoviae; assay: in vitro broth-dilution studies, mycoplasma; type: cell-based; details: Mycoplasmopsis synoviae
Source text: as §4

[30] = system: Pasteurella multocida (bovine); assay: in vitro activity against Pasteurella multocida (bovine); type: cell-based
Source text: (§5) The activity of representative compounds of this invention (R^2 =H in group tested) against P. multocida and the Pseudomonas sp. is summarized in Table VI.

[31] = system: Pasteurella multocida (turkey); assay: in vitro activity against Pasteurella multocida (turkey); type: cell-based
Source text: as §5

[32] = system: Pseudomonas sp. (fish); assay: in vitro activity against Pseudomonas sp. (fish); type: cell-based
Source text: P. multocida, for example, is a causative agent of respiratory infection in cattle, poultry and swine. P. hemolytica is a major cause of respiratory disease in cattle. The activity of representative compounds of this invention (R^2 =H in group tested) against P. multocida and the Pseudomonas sp. is summarized in Table VI.

[33] = system: Spiroplasma citri; assay: in vitro inhibition of Spiroplasma citri measured by a color reaction; type: cell-based; design: key to Activity (color reaction): Red (R) includes complete inhibition; red-orange (RO) indicates partial inhibition; yellow (Y) indicates no inhibition

In the case of `C=C[C@]1(C)C[C@@H](OC(=O)CO)[C@]2(C)[C@H](C)CC[C@]3(CCC(=O)[C@H]32)[C@@H](C)[C@@H]1O` [pleuromutilin], the “effectiveness in the treatment of swine dysentery (in words)” value [1] is given as “effective in the treatment of swine dysentery”.

In the case of `CC[C@]1(C)C[C@@H](OC(=O)CS[C@@H]2OC[C@@H](O)[C@H](O)[C@H]2O)[C@]2(C)[C@H](C)CC[C@]3(CCC(=O)[C@H]32)[C@@H](C)[C@@H]1O` [Compound 3], the “Units of Activity” value [2] is reported as 1150 to 1243 µg/mg, the ED50 ([3]; Staphylococcus aureus, 3055, po, oral, infecting challenge 500 × LD50 (ip)) is reported as 21 mg/kg and the ED50 ([3]; Staphylococcus aureus, 3055, po, oral, infecting challenge 3400 × LD50 (ip)) is reported as 29 mg/kg. The ED50 ([3]; Staphylococcus aureus, 3055, sc, sc, infecting challenge 400 × LD50 (ip)) was 1.6 mg/kg, the ED50 [4] was 7 mg/kg and the ED50 [5] was 58.5 mg/kg. It also gave an ED50 [6] of 16.3 mg/kg, an ED50 [7] of 13.2 mg/kg and an MIC [8] of 0.5 µg/mL (≈ 0.946 µM). The MIC [9] was 2 µg/mL (≈ 3.78 µM), the MIC [10] was 0.5 µg/mL (≈ 0.946 µM) and the MIC [11] was 1 µg/mL (≈ 1.89 µM). The MIC [12] was 0.5 µg/mL (≈ 0.946 µM), the MIC [13] was 0.5 µg/mL (≈ 0.946 µM) and the MIC [14] was at most 0.125 µg/mL. The MIC [15] was at most 0.125 µg/mL, the MIC [16] was 0.5 µg/mL (≈ 0.946 µM) and the MIC [17] was 2 µg/mL (≈ 3.78 µM). For the same compound, the MIC [18] was 1 µg/mL (≈ 1.89 µM), the MIC [19] was 1 µg/mL (≈ 1.89 µM) and the MIC [20] was 0.25 µg/mL (≈ 0.473 µM). It also gave an MIC [21] of 0.5 µg/mL (≈ 0.946 µM), an MIC [22] of 1 µg/mL (≈ 1.89 µM) and an MIC [23] of 1 µg/mL (≈ 1.89 µM). The MIC [24] was 1 µg/mL (≈ 1.89 µM), the MIC [25] was 1 µg/mL (≈ 1.89 µM) and the MIC [26] was 0.39 µg/mL (≈ 0.738 µM). The MIC [27] was at most 0.15 µg/mL, the MIC [28] was 0.39 µg/mL (≈ 0.738 µM) and the MIC [29] was 0.39 µg/mL (≈ 0.738 µM). For the same compound, the MIC [30] was 6.25 µg/mL (≈ 11.8 µM), the MIC [31] was 6.25 µg/mL (≈ 11.8 µM) and the MIC [32] was 12.5 µg/mL (≈ 23.6 µM). The “Activity (color reaction)” value ([33]; 0.01 ppm) was “R”, the “Activity (color reaction)” value ([33]; 0.05 ppm) was “R” and the “Activity (color reaction)” value ([33]; 0.1 ppm) was “R”. For the same compound, the “Activity (color reaction)” value ([33]; 1.0 ppm) was “R”.
